{
  "source": "patent US6153429A",
  "about": "(priority 1997, dated 2000)",
  "data": [
    {"assay": "not given", "details": "background statement, chemicals identified by IARC; cited from earlier work", "values": [
      {"smiles": "CC/C(=C(/CC)c1ccc(O)cc1)c1ccc(O)cc1", "note": "[Diethylstilbestroel, diethylstilbestroel]", "mutagenicity": "only weakly mutagenic"}
    ]},
    {"assay": "in vitro", "details": "mouse, c3h/10t1/2 t1 cells", "values": [
      {"smiles": "C1CCOC1", "note": "[tetrahydrofuran]", "fold induction at 504 h": 1},
      {"smiles": "CC/C(=C(/CC)c1ccc(O)cc1)c1ccc(O)cc1", "note": "[Diethylstilbestroel, diethylstilbestroel]", "fold induction at 504 h": 1.12},
      {"smiles": "Cn1c(=O)c2c(ncn2C)n(C)c1=O", "note": "[caffeine]", "fold induction at 504 h": 1},
      {"smiles": "C=C(C)C12OC3(c4ccccc4)OC1C1C4OC4(CO)C(O)C4(O)C(=O)C(C)=CC4C1(O3)C(C)C2OC(=O)/C=C/C=C/c1ccccc1", "note": "(stereo not drawn) [Mezerein, mezerein]", "fold induction at 504 h": 2},
      {"smiles": "c1ccc2c(c1)cc1ccc3cccc4ccc2c1c34", "note": "[Benzo[a]pyrene, benzo[a]pyrene]", "fold induction at 504 h": 1.15}
    ]}
  ]
}
